In patent US20240398813A1, “PHARMACEUTICAL COMPOSITION FOR PREVENTING OR TREATING OVERACTIVE BLADDER” (GWANGJU INSTITUTE OF SCIENCE AND TECHNOLOGY, priority 2021, published 2024):
Values joined by “and” are separate entries in the source; they are usually repeats but may differ in a detail not shown here. Equal entries are not always repeated.

Experiments:
[1] = biological target: T1, hyperactive mutant BKCa channels (hSlo G803D/N806K) stably expressed in AD 293 cells (Homo sapiens, UniProt Q12791, G856D/N859K); test: Cell-based fluorescence assay (FluxOR Potassium Ion Channel Assay) of BKCa channel activation; parameters: key to Channel activity increase for 80 s (ΔRFU) at 6 μM: ratio of ΔRFU (RFU at 100 s − 20 s) to the same ΔRFU for vehicle; conditions: for Initial velocity of channel activation for 4 s (vi) at 6 μM: first 4 s after channel stimulation; for Channel activity increase for 80 s (ΔRFU) at 6 μM: normalized by vehicle; for EC50: fit of dose-response curve of initial rates, read-out: Apparent EC50 based on vi; for activation effect on the BKCa channels at a single concentration: 3 μM
T1 construct: expressed in transfected cells
Experimental: AD 293 cells, which are derivatives of the commonly used HEK 293 cell line and stably express hyperactive mutant BKCa channels (hSlo G803D/N806K) to sensitively detect the effect (Lee et al., 2013), were cultured in Dulbecco' modified Eagle medium (Hyclone, Logan, Utah, […]) supplemented with 10% fetal bovine serum, and selected with 1 mg/mL Geneticin (Gibco, Amarillo, TX, USA). 20,000 cells per well were seeded on a 96-well clear-bottom black plate (Corning, New York, NY, USA) coated with poly-D-lysine (Gibco). BKCa channel activity was measured using the cell-based fluorescence assay, FluxOR Potassium Ion Channel Assay (Thermo Fisher Scientific, Waltham, MA, USA). Experimental procedures were performed according to the manufacturer's instructions. The cells were treated with test compounds dissolved in assay buffer for 15 minutes. Fluorescence was measured using a FlexStation3 multimode microplate reader (Molecular Devices, Silicon Valley, CA, USA) and SoftMax Pro (Molecular Devices). Excitation and emission wavelengths were set to 485 nm and 528 nm, respectively. Fluorescence signals were acquired every 2 seconds for 120 seconds and normalized by the relative fluorescence unit (RFU). The efficacy of a channel activator was determined by analyzing changes (ΔRFU) in the RFU for 80 seconds after channel stimulation.
Activation effects of the synthesized compounds on BKCa channels were evaluated using cell-based fluorescence assay. NS11021 was used as the positive control. The effects were determined based on the initial rate (vi) of channel activation and the apparent EC50 value obtained from fitting data of the dose-response curve. Here, Vi means change values for 4 seconds at the start of channel opening (vi={RFU(t=24 s)−RFU(t=20 s)}/4 s). […]

[2] = biological target: T1, hyperactive mutant BKCa channels (hSlo G803D/N806K) stably expressed in AD 293 cells; test: as above; conditions: compounds at 5 μM; n=3; vehicle 0.26

T1 sequence (Q12791 whole entry G856D/N859K): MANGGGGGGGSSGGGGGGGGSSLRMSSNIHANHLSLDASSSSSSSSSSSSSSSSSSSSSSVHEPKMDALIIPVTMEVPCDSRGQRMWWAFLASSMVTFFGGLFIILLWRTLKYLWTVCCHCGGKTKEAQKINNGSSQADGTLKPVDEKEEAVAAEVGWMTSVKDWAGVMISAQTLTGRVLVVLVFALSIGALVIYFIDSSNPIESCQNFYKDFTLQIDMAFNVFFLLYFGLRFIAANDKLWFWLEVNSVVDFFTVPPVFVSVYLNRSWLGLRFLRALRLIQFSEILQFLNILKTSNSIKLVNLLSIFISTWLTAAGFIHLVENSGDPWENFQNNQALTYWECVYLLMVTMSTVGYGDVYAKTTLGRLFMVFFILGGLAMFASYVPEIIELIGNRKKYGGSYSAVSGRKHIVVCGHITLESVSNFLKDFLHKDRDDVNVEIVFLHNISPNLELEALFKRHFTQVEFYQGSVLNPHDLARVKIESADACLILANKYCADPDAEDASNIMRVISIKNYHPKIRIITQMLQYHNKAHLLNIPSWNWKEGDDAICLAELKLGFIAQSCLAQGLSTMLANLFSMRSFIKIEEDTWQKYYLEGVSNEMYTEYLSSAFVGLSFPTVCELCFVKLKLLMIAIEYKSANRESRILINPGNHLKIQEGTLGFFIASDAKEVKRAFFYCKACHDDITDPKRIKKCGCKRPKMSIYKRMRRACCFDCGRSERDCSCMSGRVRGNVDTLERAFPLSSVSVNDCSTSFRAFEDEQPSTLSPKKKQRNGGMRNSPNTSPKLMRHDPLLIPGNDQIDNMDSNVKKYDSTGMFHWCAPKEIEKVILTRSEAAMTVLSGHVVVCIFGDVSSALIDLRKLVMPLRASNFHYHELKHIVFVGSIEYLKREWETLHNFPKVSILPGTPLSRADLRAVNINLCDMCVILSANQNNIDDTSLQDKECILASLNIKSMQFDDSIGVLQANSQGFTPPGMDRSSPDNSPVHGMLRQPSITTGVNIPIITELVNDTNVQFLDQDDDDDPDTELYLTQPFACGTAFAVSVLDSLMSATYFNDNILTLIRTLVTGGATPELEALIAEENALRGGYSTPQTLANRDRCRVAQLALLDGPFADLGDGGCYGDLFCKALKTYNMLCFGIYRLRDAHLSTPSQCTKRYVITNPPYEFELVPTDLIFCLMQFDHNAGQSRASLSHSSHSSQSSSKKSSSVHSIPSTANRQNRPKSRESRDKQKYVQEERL

Compound	Initial velocity of channel activation for 4 s (vi) at 6 μM [1]	Channel activity increase for 80 s (ΔRFU) at 6 μM [1]	EC50 [1]	BKCa activity [1]	activation effect on the BKCa channels at a single concentration [1]	Activity (ΔRFU normalized by activities of LDD175) [2]
O=C(O)c1sc(=S)n2c1[nH]c(=O)c1ccccc12 [Compound 3, 5-oxo-1-thioxo-4,5-dihydro-1H-thiazolo[3,4-a]quinazoline-3-carboxylic acid]	0.38 s⁻¹	1.38	12.7 µM			
NC(=O)c1sc(=S)n2c1[nH]c(=O)c1ccccc12 [Compound 4, 5-oxo-1-thioxo-4,5-dihydro-1H-thiazolo[3,4-a]quinazoline-3-carboxamide]	0.32 s⁻¹	0.96				
O=C(NCc1ccccc1)c1sc(=S)n2c1[nH]c(=O)c1ccccc12 [Compound 5, N-benzyl-5-oxo-1-thioxo-4,5-dihydro-1H-thiazolo[3,4-a]quinazoline-3-carboxamide]	0.26 s⁻¹	1.10				
COc1cccc(NC(=O)c2sc(=S)n3c2[nH]c(=O)c2cc(Br)ccc23)c1 [Compound 204, 7-bromo-N-(3-methoxyphenyl)-5-oxo-1-thioxo-4,5-dihydro-1H-thiazolo[3,4-a]quinazoline-3-carboxamide]	6.00 s⁻¹	3.35	6.6 µM			
O=C(Nc1cccc(OC(F)(F)F)c1)c1sc(=S)n2c1[nH]c(=O)c1cc(Br)ccc12 [Compound 209, 7-bromo-5-oxo-1-thioxo-N-(3-(trifluoromethoxy)phenyl)-4,5-dihydro-1H-thiazolo[3,4-a]quinazoline-3-carboxamide]	14.78 s⁻¹	4.37	3.82 µM			
O=C(Nc1cc(C(F)(F)F)cc(C(F)(F)F)c1)c1sc(=S)n2c1[nH]c(=O)c1cc(Br)ccc12 [Compound 210, N-(3,5-bis(trifluoromethyl)phenyl)-7-bromo-5-oxo-1-thioxo-4,5-dihydro-1H-thiazolo[3,4-a]quinazoline-3-carboxamide]	2.08 s⁻¹	2.28	17.3 µM			
FC(F)(F)c1cc(NC(=S)Nc2ccc(Br)cc2-c2nn[nH]n2)cc(C(F)(F)F)c1 [NS11021, reference compound]	1.63 s⁻¹	1.86	14.9 µM and 14.3 µM		significant activation effects	
COC(=O)c1ccc2c(=O)[nH]c3c(C(=O)Nc4cccc(F)c4)sc(=S)n3c2c1 [TTQC-2, methyl 3-((3-fluorophenyl)carbamoyl)-5-oxo-1-thioxo-4,5-dihydro-1H-thiazolo[3,4-a]quinazoline-8-carboxylate]						0.99
CCOC(=O)c1ccc(NC(=O)c2sc(=S)n3c2[nH]c(=O)c2ccc(Cl)cc23)cc1 [TTQC-3, ethyl 4-(8-chloro-5-oxo-1-thioxo-4,5-dihydro-1H-thiazolo[3,4-a]quinazoline-3-carboxamido)benzoate]						0.96
CCc1ccccc1NC(=O)c1sc(=S)n2c1[nH]c(=O)c1ccc(Cl)cc12 [TTQC-4, 8-chloro-N-(2-ethylphenyl)-5-oxo-1-thioxo-4,5-dihydro-1H-thiazolo[3,4-a]quinazoline-3-carboxamide]						0.95
CC(C)NC(=O)c1sc(=S)n2c1[nH]c(=O)c1cc(Br)ccc12 [TTQC-6, 7-bromo-N-isopropyl-5-oxo-1-thioxo-4,5-dihydro-1H-thiazolo[3,4-a]quinazoline-3-carboxamide]						0.90
C=C(C)[C@H](CC=C(C)C)Cc1c(O)cc(OC)c2c1O[C@H](c1ccc(O)cc1O)CC2=O [kurarinone, reference compound]					significant activation effects	
CC(=O)c1c(O)c(C)c(O)c(Cc2c(O)c3c(c(C(=O)/C=C/c4ccccc4)c2O)OC(C)(C)C=C3)c1O [rottlerin, reference compound]					significant activation effects	

More lines, now with the values ahead:

Initial velocity of channel activation for 4 s (vi) at 6 μM [1]	Channel activity increase for 80 s (ΔRFU) at 6 μM [1]	EC50 [1]	BKCa activity [1]	activation effect on the BKCa channels at a single concentration [1]	Activity (ΔRFU normalized by activities of LDD175) [2]	Compound
0.42 s⁻¹	1.03					O=C(Nc1ccccc1)c1sc(=S)n2c1[nH]c(=O)c1ccccc12 [Compound 101, 5-oxo-N-phenyl-1-thioxo-4,5-dihydro-1H-thiazolo[3,4-a]quinazoline-3-carboxamide]
0.23 s⁻¹	1.06					Cc1ccc2c(=O)[nH]c3c(C(=O)Nc4ccccc4)sc(=S)n3c2c1 [Compound 102, 8-methyl-5-oxo-N-phenyl-1-thioxo-4,5-dihydro-1H-thiazolo[3,4-a]quinazoline-3-carboxamide]
	1.56					O=C(Nc1ccccc1)c1sc(=S)n2c1[nH]c(=O)c1ccc(Cl)cc12 [Compound 103, 8-chloro-5-oxo-N-phenyl-1-thioxo-4,5-dihydro-1H-thiazolo[3,4-a]quinazoline-3-carboxamide]
	1.25					O=C(Nc1ccccc1)c1sc(=S)n2c1[nH]c(=O)c1ccc(Br)cc12 [Compound 104, 8-bromo-5-oxo-N-phenyl-1-thioxo-4,5-dihydro-1H-thiazolo[3,4-a]quinazoline-3-carboxamide]
0.32 s⁻¹	1.16					Cc1ccc2c(c1)c(=O)[nH]c1c(C(=O)Nc3ccccc3)sc(=S)n12 [Compound 105, 7-methyl-5-oxo-N-phenyl-1-thioxo-4,5-dihydro-1H-thiazolo[3,4-a]quinazoline-3-carboxamide]
0.38 s⁻¹	1.18					O=C(Nc1ccccc1)c1sc(=S)n2c1[nH]c(=O)c1cc(Cl)ccc12 [Compound 106, 7-chloro-5-oxo-N-phenyl-1-thioxo-4,5-dihydro-1H-thiazolo[3,4-a]quinazoline-3-carboxamide]
5.51 s⁻¹	3.83	12.3 µM				O=C(Nc1ccccc1)c1sc(=S)n2c1[nH]c(=O)c1cc(Br)ccc12 [Compound 107, 7-bromo-5-oxo-N-phenyl-1-thioxo-4,5-dihydro-1H-thiazolo[3,4-a]quinazoline-3-carboxamide]
9.40 s⁻¹	3.68	4.6 µM				Cc1ccccc1NC(=O)c1sc(=S)n2c1[nH]c(=O)c1cc(Br)ccc12 [Compound 201, 7-bromo-5-oxo-1-thioxo-N-(o-tolyl)-4,5-dihydro-1H-thiazolo[3,4-a]quinazoline-3-carboxamide]
0.71 s⁻¹	1.41					Cc1ccc(NC(=O)c2sc(=S)n3c2[nH]c(=O)c2cc(Br)ccc23)cc1 [Compound 203, 7-bromo-5-oxo-1-thioxo-N-(p-tolyl)-4,5-dihydro-1H-thiazolo[3,4-a]quinazoline-3-carboxamide]
4.03 s⁻¹	4.88	11.2 µM				O=C(Nc1cccc(O)c1)c1sc(=S)n2c1[nH]c(=O)c1cc(Br)ccc12 [Compound 205, 7-bromo-N-(3-hydroxyphenyl)-5-oxo-1-thioxo-4,5-dihydro-1H-thiazolo[3,4-a]quinazoline-3-carboxamide]
12.55 s⁻¹	2.85	1.14 µM	significant improvement			O=C(Nc1cccc(F)c1)c1sc(=S)n2c1[nH]c(=O)c1cc(Br)ccc12 [Compound 206, 7-bromo-N-(3-fluorophenyl)-5-oxo-1-thioxo-4,5-dihydro-1H-thiazolo[3,4-a]quinazoline-3-carboxamide]
16.12 s⁻¹	3.56	4.85 µM				O=C(Nc1cccc(Cl)c1)c1sc(=S)n2c1[nH]c(=O)c1cc(Br)ccc12 [Compound 207, 7-bromo-N-(3-chlorophenyl)-5-oxo-1-thioxo-4,5-dihydro-1H-thiazolo[3,4-a]quinazoline-3-carboxamide]
					0.90	COc1ccccc1NC(=O)c1sc(=S)n2c1[nH]c(=O)c1cc(Cl)ccc12 [TTQC-5, 7-chloro-N-(2-methoxyphenyl)-5-oxo-1-thioxo-4,5-dihydro-1H-thiazolo[3,4-a]quinazoline-3-carboxamide]
